Experimental findings from patent US6855549B1, “Methods and compositions for increasing the infectivity of gene transfer vectors” (The University of Iowa Research Foundation, priority 1998, dated 2005) are described below.

Molecules are shown by their SMILES. Entries after “also recorded” stand apart in the source; their conditions may differ. Like-named read-outs stand apart in the source and are kept apart here.

Data set [1] has as its system rabbit tracheal epithelium. The experiment in a line: Tracheal transepithelial voltage (Vt) in anesthetized rabbits. The data set is classed as in vivo. How it is done: Rabbit studies. The transepithelial electrical potential difference across the rabbit tracheal epithelium (Vt) was measured using a modification of previously described methods (Zabner et al., 1996). The reference electrode was a subcutaneous needle connected with sterile normal saline solution to a silver/silver chloride pellet. Adult New Zealand white rabbits (n=4/group) were anesthetized with 32 mg/kg ketamine, 5.1 mg/kg xylazine and 0.8 mg/kg acepromazine intramuscularly and placed with the head in the dependent position. An exploring electrode (pediatric size 8 Teflon-coated latex double lumen Foley catheter, modified Ruseh, Inc., Duluth, Ga.) was inserted into the tracheal lumen via a tracheotomy incision. One lumen of the catheter was filled with sterile normal saline solution and was connected to a silver/silver chloride pellet. Voltage was measured with a voltmeter connected to a strip chart recorder. The catheter was then left in that position for the entire recording period. The solutions were administered through the second lumen in the following order: 1) Normal saline for 5 min; 2) Sterile water with 10 mM EGTA for 10 min; 3) Normal saline with 10 mM EGTA for 5 min; and 4) Normal saline with 10 mM EGTA plus 100 μM amiloride for 5 min. Measurements of Vt were read by two investigators who were blinded to the treatment received. There wre no discrepancies in readings of greater than 2 mV between the investigators. Disruption of epithelial junctions was assessed by detecting a fall in […] Vt after perfusion with the chelator, and by the loss of amiloride-sensitive Vt after perfusion with the chelator solution.

Another data set has as its system lung. Description: Lung morphology (H & E) 1 wk after EGTA/water instillation. It counts as in vivo, rat. As for the experimental part: (§1) Preliminary studies were performed in rats to test the feasibility of using hypotonic solutions with EGTA to increase transepithelial permeability in vivo. 3 wk old rats were tracheotomized and a small caliber PE catheter inserted into the left lobe of the lung. 100 μl of 3 or 12 mM EGTA in water or PBS was mixed with […] fluorescent beads (a marker for viral particles) and instilled into the lungs. One hour later the animals were sacrificed and lung, tissue sections examined under fluorescence microscopy to determine if the fluorescent beads penetrated the epithelial layer. In the PBS control animal, fluorescent particles were only noted in the airway lunen. […] It also was asked if animals treated with EGTA/H2O developed changes in lung morphology. Animals received PBS or 12, 60, or 120 mM EGTA/water into the left lobe of the lung and 1 wk later were sacrificed and H & E stained lung tissues examined.

Data set [2] concerns human bronchial epithelial cells. The data set is classed as cell-based. How it is done: Primary human airway epithelial cells were collected by enzymatic digestion of bronchial samples from lung transplants as previously described (Kondo et al., 1991; Zabner et al., 1996). Isolated airway primary cells were seeded at a density of 5×10^5 cells/cm^2 onto collagen-coated Millicell-HA culture inserts (Millipore, Bedford, Mass.). Primary cultures were grown at the air-liquid interface for more than 2 wk, at which time differentiation into a mucociliary epithelium occurs. The culture medium, used to feed only the basolateral side of the cells, contained 49% Dulbecco's modified Eagle's medium (DMEM), 49% Ham's F12, and 2% Ultraser G (BioSepra, Cedex, France).
Recombinant AAV virus was produced by a CaPO4 co-transfection protocol and was purified through three rounds of isopycnic cesium chloride ultracentrifuigation, as previously described (Duan et al., 1997). The proviral plasmid, pCisAV.GFP3ori, was used to generate rAAV (AV.GFP3ori), which encoded the enhanced green fluorescent protein (EGFP) reporter gene under the transcriptional control of the cytomegalovirus (CVM) enhancer/promoter and simian virus 40 (SV40) polyadenylation signal (Duan et al., 1998). Recombinant viral stocks were heated at 58° C. for 60 min to inactivate contaminating helper adenovirus. Typical yields were 1×10^9 particles/μl, determined on the basis of DNA slot-blot hybridization assays against plasmid standards. The level of adenoviral contamination, as based on a second reporter assay for the recombinant adenovirus used for propagation (Ad.CMVAlkphos) (Duane et al., 1997), was less than 1 functional particle per 1×10^10 DNA particles of rAAV. Viral preparations were evaluated for the contamination of wild type AAV (wtAAV) by immunocytochemical staining of AV.GFP3ori/Ad.CMVLacZ (Duan et al., 1998)-coinfected 293 cells with anti-Rep antibodies (American Research Products, Belmont, Mass.). […] Transfection with Rep/Cap-encoding plasmids served as controls for antibody staining of Rep protein. Virus was dialyzed in phosphate-buffered saline (PBS) prior to application on primary airway cultures. […]

Another data set has as its system lung epithelial layer. Description: Fluorescent bead penetration of lung epithelium after EGTA instillation. It counts as in vivo, rat. Conditions: 3 or 12 mM EGTA, 100 μl into left lobe, one hour. How it is done: as §1
For data set [3], the system named is differentiated human airway epithelia. The data set is classed as cell-based.
Setting [4] is: vector to apical surface with EGTA in vector buffer, 200 cells counted.

Turning to `O=C(O)CN(CCOCCOCCN(CC(=O)O)CC(=O)O)CC(=O)O` [EGTA], the “amiloride-sensitive Vt after hypotonic/EGTA treatment” value in data set [1] (100 μM amiloride) is recorded as “there was no residual amiloride-sensitive Vt; also recorded: amiloride had no effect on Vt”. Further, in data set [1] (hypotonic solution with 10 mM EGTA then saline with 10 mM EGTA), the “tracheal Vt” value is “caused a significant fall in Vt”. Moreover, the lung morphology result in the data set with lung (120 mM EGTA) is reported as “thickening of the interstitial space was noted”. For the same compound, the lung morphology entry in the data set on lung (12 or 60 mM EGTA/water) is given as “morphology similar to the control”. Moreover, in data set [2], the “apical transduction after EGTA, lower than maximal basolateral level” value is given as 20 fold; the “rAAV transduction, EGTA and virus on basolateral side” value is “no significant differences were seen in the extent of rAAV”. In addition, the “integrity of the monolayers by light microscopy” value in data set [2] (40 days after hypotonic/EGTA treatment) is “No significant differences were detected in the integrity of the monolayers”. In addition, the “penetration of 100 nM fluorescent beads into epithelial layer” value in the data set with lung epithelial layer is “beads were seen throughout the cell layer and close to the basement membrane”. Besides, the effect on proliferation result in data set [3] (application of H2O or EGTA to epithelia, control studies) is “had no effect on proliferation”. In addition, the β-gal positive cells in data set [3] (pretreated with combination of water and EGTA 20 min, then vector, mean±SE, n=9) amounted to 20.3±2.5%. The compound further yielded a β-gal positive cells in data set [3] (sequential water then EGTA in water 10 min each, then vector) of 8±1.3%. Besides, in data set [3] (setting [4]), the “share of β-gal positive cells that are basal cells” value is listed as 36%, the “share of β-gal positive cells that are ciliated cells” value is reported as 28% and the “share of β-gal positive cells that are intermediate cells” value is reported as 36%. In data set [3] (water and EGTA 20 min, then vector containing EGTA, 3 days after delivery, mean±SE, n=9), this compound had a β-gal positive cells of 34.3±5.4%.
